Patent US20020137929A1, “1 - (3-heterocyclylphenyl) isothiourea, -isourea, -guanidine and -amidine herbicidal agents” (Intellectual Property Department, BASF Aktiengesellschaft, priority 1998, published 2002)

Experiments:
[1] = system: ABUTH (Velvetleaf); assay: Postemergence herbicidal evaluation; format: in vivo, Abutilon theophrasti; details: postemergence
Summary of the method: (§1)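 Scores (0–9) reflect plant stand, vigor, malformation, size, chlorosis and general appearance relative to control, read 4 to 5 weeks after treatment and averaged where tests were repeated. Application: about 0.0156–0.500 kg/ha sprayed at 40 psi onto two-week seedlings.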

[2] = system: CASOB (Sicklepod); assay: Postemergence herbicidal evaluation; format: in vivo, Cassia obtusifolia; details: postemergence
Summary of the method: as §1

[3] = system: GALAP (Galium); assay: Postemergence herbicidal evaluation; format: in vivo, Galium aparine; details: postemergence
Summary of the method: as §1

[4] = system: SETVI (Foxtail, Green); assay: Postemergence herbicidal evaluation; format: in vivo, Setaria viridis; details: postemergence
Summary of the method: as §1

[5] = system: ABUTH (Velvetleaf); assay: Preemergence herbicidal evaluation; format: in vivo, Abutilon theophrasti; details: rated 4-5 weeks after treatment
Summary of the method: (§2)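 Seeds were mixed with potting soil and planted on about one inch of soil, then sprayed with test compound in aqueous acetone at about 0.0156 to 0.500 kg per hectare. Plants grew under standard greenhouse care and were visually rated 0-9 against untreated controls 4-5 weeks post-treatment.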

[6] = system: AMBEL (Ragweed, Common); assay: Preemergence herbicidal evaluation; format: in vivo, Ambrosia artemisifolia; details: rated 4-5 weeks after treatment
Summary of the method: as §2

[7] = system: GALAP (Galium); assay: Preemergence herbicidal evaluation; format: in vivo, Galium aparine; details: rated 4-5 weeks after treatment
Summary of the method: as §2

[8] = system: ECHCG (Barnyardgrass); assay: Preemergence herbicidal evaluation; format: in vivo, Echinochloa crus-galli; details: rated 4-5 weeks after treatment
Summary of the method: as §2

[9] = system: GLXMAW (Soybean, Williams); assay: Preemergence herbicidal evaluation; format: in vivo, Glycine max, (L.) Merr. cv Williams; details: rated 4-5 weeks after treatment
Summary of the method: as §2

[10] = system: TRZAWR (Wheat, Winter, cv Riband); assay: Preemergence herbicidal evaluation; format: in vivo, Triticum aestivum; details: rated 4-5 weeks after treatment
Summary of the method: as §2

[11] = system: CYPIR (Rice Flatsedge); assay: Preemergence weed control under flooded paddy conditions; format: in vivo, Cyperus iria; details: rated 3-4 weeks after treatment
Summary of the method: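 Flooded-pot preemergence screen with silt loam and seeds in the upper 0.5 cm. Dose about 0.0313 to 0.500 kg/ha, delivered into flood water; visual 0-9 score after 3 to 4 weeks.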

[12] = system: SAGPY (Arrowhead (Pygmaea)); assay: as above; format: in vivo, Sagittaria pygmaea; details: rated 3-4 weeks after treatment
Summary of the method: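 Using flooded silt loam (water 1.5 to 3 cm deep), seeds sown in the top 0.5 cm were exposed preemergence to compound pipetted into the flood at about 0.0313 to 0.500 kg/ha. Effects were scored 0-9 by eye three to four weeks later.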

CCOC(=O)CN1C(=O)C(CC(=O)O)SC1=Nc1cc(-n2nc(C)n(C(F)F)c2=O)c(F)cc1Cl (stereo not shown) [Compound 112, 2-{{2-Chloro-5-[4-(difluoromethyl)-4,5-dihydro-3-methyl-5-oxo-1H-1,2,4-triazol-1-yl]-4-fluorophenyl}imino}-4-oxo-3,5-thiazolidinediacetic acid, 3-ethyl ester]
herbicidal rating ABUTH ([1]; rate 0.0158 kg/ha): 9.0 | herbicidal rating ABUTH ([1]; rate 0.0315 kg/ha): 9.0 | herbicidal rating ABUTH ([1]; rate 0.0630 kg/ha): 9.0 | herbicidal rating CASOB ([2]; rate 0.0158 kg/ha): 1.0 | herbicidal rating CASOB ([2]; rate 0.0315 kg/ha): 1.0 | herbicidal rating CASOB ([2]; rate 0.0630 kg/ha): 2.0 | herbicidal rating GALAP ([3]; rate 0.0158 kg/ha): 0.0 | herbicidal rating GALAP ([3]; rate 0.0315 kg/ha): 2.0 | herbicidal rating GALAP ([3]; rate 0.0630 kg/ha): 2.0 | herbicidal rating SETVI ([4]; rate 0.0158 kg/ha): 3.0 | herbicidal rating SETVI ([4]; rate 0.0315 kg/ha): 9.0 | herbicidal rating SETVI ([4]; rate 0.0630 kg/ha): 6.0 | Preemergence herbicidal rating ABUTH ([5]; rate 0.0313 kg/ha): 0.0 | Preemergence herbicidal rating ABUTH ([5]; rate 0.0625 kg/ha): 0.0 | Preemergence herbicidal rating ABUTH ([5]; rate 0.2500 kg/ha): 1.0 | Preemergence herbicidal rating AMBEL ([6]; rate 0.0313 kg/ha): 0.0 | Preemergence herbicidal rating AMBEL ([6]; rate 0.0625 kg/ha): 0.0 | Preemergence herbicidal rating AMBEL ([6]; rate 0.1250 kg/ha): 0.0 | Preemergence herbicidal rating AMBEL ([6]; rate 0.2500 kg/ha): 0.0 | Preemergence herbicidal rating GALAP ([7]; rate 0.0313 kg/ha): 0.0 | Preemergence herbicidal rating GALAP ([7]; rate 0.0625 kg/ha): 0.0 | Preemergence herbicidal rating GALAP ([7]; rate 0.1250 kg/ha): 0.0 | Preemergence herbicidal rating GALAP ([7]; rate 0.2500 kg/ha): 0.0 | Preemergence herbicidal rating ECHCG ([8]; rate 0.0313 kg/ha): 0.0 | Preemergence herbicidal rating ECHCG ([8]; rate 0.0625 kg/ha): 0.0 | Preemergence herbicidal rating ECHCG ([8]; rate 0.1250 kg/ha): 0.0 | Preemergence herbicidal rating ECHCG ([8]; rate 0.2500 kg/ha): 0.0 | Preemergence herbicidal rating GLXMAW ([9]; rate 0.0313 kg/ha): 0.0 | Preemergence herbicidal rating GLXMAW ([9]; rate 0.0625 kg/ha): 1.0 | Preemergence herbicidal rating GLXMAW ([9]; rate 0.1250 kg/ha): 3.0 | Preemergence herbicidal rating GLXMAW ([9]; rate 0.2500 kg/ha): 3.0 | Preemergence herbicidal rating TRZAWR ([10]; rate 0.0313 kg/ha): 0.0 | Preemergence herbicidal rating TRZAWR ([10]; rate 0.0625 kg/ha): 0.0 | Preemergence herbicidal rating TRZAWR ([10]; rate 0.1250 kg/ha): 0.0 | Preemergence herbicidal rating TRZAWR ([10]; rate 0.2500 kg/ha): 1.0 | CYPIR herbicidal effect rating ([11]; 0.0313 kg/ha): 0.0 | CYPIR herbicidal effect rating ([11]; 0.0625 kg/ha): 3.0 | CYPIR herbicidal effect rating ([11]; 0.1250 kg/ha): 6.0 | CYPIR herbicidal effect rating ([11]; 0.2500 kg/ha): 7.0 | SAGPY herbicidal effect rating ([12]; 0.0313 kg/ha): 6.0 | SAGPY herbicidal effect rating ([12]; 0.0625 kg/ha): 7.0 | SAGPY herbicidal effect rating ([12]; 0.1250 kg/ha): 7.0 | SAGPY herbicidal effect rating ([12]; 0.2500 kg/ha): 7.0
